This is an account of results in article PMC11126104 (Toxins, 2024).

In data set [1] the test system is Caco-2/HT-29MTX monolayers.
Another data set is described as follows: in vitro. The note with it: human.
The conditions of data set [2]: pH 7.
For data set [3] the following is noted: rat, in vivo; cited from earlier work.
For data set [4] the following is noted: cited from earlier work.

In general, Papp refers to the rate of passage across a membrane or cell layer, normalised by area and donor concentration. Turning to `CC(C)[C@H]1C(=O)O[C@H](C(C)C)C(=O)N(C)[C@@H](C(C)C)C(=O)O[C@H](C(C)C)C(=O)N(C)[C@@H](C(C)C)C(=O)O[C@H](C(C)C)C(=O)N1C` [ENNB, enniatin B], in data set [1], the “FA (%) absorption category” value is on record as “High”. For the same compound, the “toxicity / cell viability (MTT)” value with Caco-2/HT-29MTX cells is given as “not affecting cell viability”. In the data set “in vitro”, the Papp amounted to 91.6 ×10⁻⁶ cm/s. Further, in data set [2], the “intestinal bioaccessibility, range of values” is given as 0.6-98.2%.

For the compound `COc1cc2c(c3oc4cccc(O)c4c(=O)c13)[C@@H]1C=CO[C@@H]1O2` [STG, sterigmatocystin], the “FA (%) absorption category” value in data set [1] is “High”. Also, the “toxicity / cell viability (MTT)” value with Caco-2/HT-29MTX cells is “not affecting cell viability”. The “intestinal bioaccessibility, range of values” in data set [2] is given as 1.5-59.3%.

Take aflatoxin B1 [AFB1]: in data set [3], the “absorption within the intestinal tract” value is reported as “nearly total absorption”. Further, in the data set on Caco-2/HT-29MTX cells, the “toxicity / cell viability (MTT)” value is “not affecting cell viability”. Besides, the “log Po/w” value in data set [4] is on record as 2.09.
